The test concerns P388 leukemia ip, CD2F1 mice, survival T/C. Nature of the test: NCI In Vivo Anticancer Drug Screen. Data for tumor model P388 Leukemia (intraperitoneal) in CD2F1 (CDF1) mice. The settings on record: endpoint: median survival time, higher = longer survival. The method in brief:
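Mice carrying the transplanted tumor received test compound or vehicle. Survival was recorded in each group, and the value is the treated-group measurement divided by that of the vehicle-treated control group.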

[1] abbreviates: dose: 25.0 mg/kg/injection, schedule: Q01DX009 (ip), vehicle: saline with Tween-80.
The mark [2] stands for this setting: dose: 50.0 mg/kg/injection, schedule: Q01DX009 (ip), vehicle: saline with Tween-80.
Where [3] appears, read: dose: 100.0 mg/kg/injection, schedule: Q01DX009 (ip), vehicle: saline with Tween-80.
Setting [4] is: dose: 50.0 mg/kg/injection, schedule: Q01DX009 (ip), vehicle: Klucel (hydroxypropylcellulose) (HPC).
Setting [5] is: dose: 100.0 mg/kg/injection, schedule: Q01DX009 (ip), vehicle: Klucel (hydroxypropylcellulose) (HPC).
Setting [6] is: dose: 60.0 mg/kg/injection, schedule: Q01DX005 (ip), vehicle: Klucel (hydroxypropylcellulose) (HPC).
Setting [7] is: dose: 120.0 mg/kg/injection, schedule: Q01DX005 (ip), vehicle: Klucel (hydroxypropylcellulose) (HPC).
Where [8] appears, read: dose: 50.0 mg/kg/injection, schedule: Q01DX005 (ip), vehicle: saline with Tween-80.
The mark [9] stands for this setting: dose: 100.0 mg/kg/injection, schedule: Q01DX005 (ip), vehicle: saline with Tween-80.
Setting [10] is: dose: 200.0 mg/kg/injection, schedule: Q01DX005 (ip), vehicle: saline with Tween-80.

Structures are written as SMILES. Where “and” joins values, the source holds several entries; their conditions need not be identical. Identical values can stand only once. Toxic doses and inconclusive results are not listed.

Consider `O=C1c2ccsc2C(=O)c2ccsc21`, for which the T/C (dose: 12.5 mg/kg/injection, schedule: Q01DX009 (ip), vehicle: saline with Tween-80) is 101 % of control; the T/C under setting [1] is 105 % of control; the T/C under setting [2] was 101 % of control; the T/C under setting [3] was 99 % of control.
In the case of `CCSCC1C(=O)C23CC1CCC2C12COC(O)C1C(C)(C)C(O)CC2OC3=O` (configuration not stated), the T/C by setting is: (dose: 3.12 mg/kg/injection, schedule: Q01DX009 (ip), vehicle: Klucel (hydroxypropylcellulose) (HPC)) 103 % of control; (dose: 6.25 mg/kg/injection, schedule: Q01DX009 (ip), vehicle: Klucel (hydroxypropylcellulose) (HPC)) 107 % of control; (dose: 12.5 mg/kg/injection, schedule: Q01DX009 (ip), vehicle: Klucel (hydroxypropylcellulose) (HPC)) 103 % of control; under setting [4], 109 % of control; under setting [5], 107 % of control.
For the compound `COC(=O)c1ccccc1N=NNc1ccccc1C#N`, the T/C is 109 % of control (dose: 100.0 mg/kg/injection, schedule: Q01DX001 (ip), vehicle: Klucel (hydroxypropylcellulose) (HPC)); 103 % of control (dose: 200.0 mg/kg/injection, schedule: Q01DX001 (ip), vehicle: Klucel (hydroxypropylcellulose) (HPC)); 94 % of control (dose: 400.0 mg/kg/injection, schedule: Q01DX001 (ip), vehicle: Klucel (hydroxypropylcellulose) (HPC)).
For `CCc1nc2c(Br)c3oc(CC)nc3c(Br)c2o1`, the T/C by setting is: under setting [6], 103 % of control; under setting [7], 100 % of control; (dose: 240.0 mg/kg/injection, schedule: Q01DX005 (ip), vehicle: Klucel (hydroxypropylcellulose) (HPC)) 90 % of control.
As for `CO/N=C/c1ccc[n+](C)c1`, the T/C runs as follows: under setting [8], 105 % of control; under setting [9], 105 % of control.
Take `COCCOCCOCCOCCOCCN`: the T/C is, setting by setting: (dose: 100.0 mg/kg/injection, schedule: Q04DX003 (ip), vehicle: saline) 100 % of control; (dose: 200.0 mg/kg/injection, schedule: Q04DX003 (ip), vehicle: saline) 100 % of control; (dose: 400.0 mg/kg/injection, schedule: Q04DX003 (ip), vehicle: saline) 104 % of control.
With `CN1c2ccccc2C2=C(C3=C(CS2)C(=O)CCS3)S1(=O)=O`, the T/C runs as follows: (dose: 100.0 mg/kg/injection, schedule: Q01DX001 (ip), vehicle: saline with Tween-80) 100 % of control; (dose: 200.0 mg/kg/injection, schedule: Q01DX001 (ip), vehicle: saline with Tween-80) 99 % of control; (dose: 400.0 mg/kg/injection, schedule: Q01DX001 (ip), vehicle: saline with Tween-80) 100 % of control.
For `CCOC(=O)CC1C(=O)N(c2nc(-c3ccc(Br)cc3)cs2)N=C1C` (configuration not stated), the T/C is 96 % of control under setting [4]; 101 % of control under setting [5]; 103 % of control (dose: 200.0 mg/kg/injection, schedule: Q01DX009 (ip), vehicle: Klucel (hydroxypropylcellulose) (HPC)).
As to `O=[N+]([O-])c1ccc(/C=C(/c2ccc([N+](=O)[O-])o2)S(=O)(=O)c2ccccc2)o1`, the T/C (dose: 50.0 mg/kg/injection, schedule: Q01DX009 (ip), vehicle: suspension in saline) was 95 % of control and the T/C (dose: 100.0 mg/kg/injection, schedule: Q01DX009 (ip), vehicle: suspension in saline) is 100 % of control.
Consider `CCC1=CC2CN3CCc4c([nH]c5ccccc45)C(C(=O)OC)(C2)C13` (configuration not stated), for which the T/C by setting is: under setting [8], 105 % of control; under setting [9], 108 % of control.
In the case of `C=CCN(CC=C)P(=O)(N1CC1)N1CC1C` (configuration not stated), the T/C reads like this: (dose: 0.6 mg/kg/injection, schedule: Q01DX009 (ip), vehicle: saline) 189 % of control; (dose: 0.9 mg/kg/injection, schedule: Q01DX009 (ip), vehicle: saline) 174 % of control.
On to `C[Si](C)(C[P+](=O)[O][Sn]([CH3])([CH3])[O][P+](=O)C[Si](C)(C)c1ccccc1)c1ccccc1` (configuration not stated), for which the T/C reads like this: (dose: 3.75 mg/kg/injection, schedule: Q01DX005 (ip), vehicle: saline with Tween-80) 100 % of control; (dose: 7.5 mg/kg/injection, schedule: Q01DX005 (ip), vehicle: saline with Tween-80) 93 % of control.
As to `CCSSC(=Nc1ccccc1)OCC(C)C`, the T/C is 107 % of control (dose: 50.0 mg/kg/injection, schedule: Q01DX009 (ip), vehicle: saline + Tween-80 + alcohol); 106 % of control (dose: 100.0 mg/kg/injection, schedule: Q01DX009 (ip), vehicle: saline + Tween-80 + alcohol); 123 % of control (dose: 200.0 mg/kg/injection, schedule: Q01DX009 (ip), vehicle: saline + Tween-80 + alcohol).
In the case of `CCOC(=O)NC(CC(NC(=O)OCC)NC(=O)OCC)NC(=O)OCC`, the T/C runs as follows: under setting [8], 108 % of control; under setting [9], 107 % of control; under setting [10], 110 % of control.
As to `CCCCCSCN(CC)CC`, the T/C was 103 % of control under setting [1]; 99 % of control and 101 % of control (dose: 25.0 mg/kg/injection, schedule: Q01DX009 (ip), vehicle: saline); 100 % of control and 104 % of control and 91 % of control (dose: 50.0 mg/kg/injection, schedule: Q01DX009 (ip), vehicle: saline); 99 % of control and 101 % of control and 104 % of control (dose: 100.0 mg/kg/injection, schedule: Q01DX009 (ip), vehicle: saline); 114 % of control (dose: 200.0 mg/kg/injection, schedule: Q01DX009 (ip), vehicle: saline with Tween-80); 119 % of control (2×) and 120 % of control (dose: 200.0 mg/kg/injection, schedule: Q01DX009 (ip), vehicle: saline).
`O=C(O)C1(Br)CC2(C1)CC(Br)(C(=O)O)C2` (configuration not stated): the T/C runs as follows: (dose: 100.0 mg/kg/injection, schedule: Q04DX002 (ip), vehicle: other) 94 % of control; (dose: 200.0 mg/kg/injection, schedule: Q04DX002 (ip), vehicle: other) 91 % of control; (dose: 400.0 mg/kg/injection, schedule: Q04DX002 (ip), vehicle: other) 103 % of control.
Turning to `CCN(CC)CCNc1ccc(COC(=O)NC)c2sc3ccccc3c(=O)c12`, the T/C is 116 % of control (dose: 1.56 mg/kg/injection, schedule: Q01DX009 (ip), vehicle: saline with Tween-80); 122 % of control (dose: 3.12 mg/kg/injection, schedule: Q01DX009 (ip), vehicle: saline with Tween-80); 119 % of control (dose: 6.25 mg/kg/injection, schedule: Q01DX009 (ip), vehicle: saline with Tween-80).
Take `CCOP(=O)(O)C1CCCC(C)[N-]1.CCOP(=O)(O)C1CCCC(C)[N-]1.[Co+2]` (configuration not stated): the T/C (dose: 25.0 mg/kg/injection, schedule: Q04DX003 (ip), vehicle: Klucel (hydroxypropylcellulose) (HPC)) is 107 % of control; the T/C (dose: 50.0 mg/kg/injection, schedule: Q04DX003 (ip), vehicle: Klucel (hydroxypropylcellulose) (HPC)) is 95 % of control; the T/C (dose: 100.0 mg/kg/injection, schedule: Q04DX003 (ip), vehicle: Klucel (hydroxypropylcellulose) (HPC)) is 99 % of control and 105 % of control.
Regarding `CCOC(=O)c1c[nH]c(=S)n(CCOC)c1=O`, the T/C reads like this: under setting [1], 92 % of control; under setting [2], 108 % of control; under setting [3], 115 % of control.
On to `c1cnc2c3cnc4sccc4c3nn2c1`, for which the T/C was 93 % of control (dose: 100.0 mg/kg/injection, schedule: Q04DX002 (ip), vehicle: saline with Tween-80); 88 % of control (dose: 200.0 mg/kg/injection, schedule: Q04DX002 (ip), vehicle: saline with Tween-80); 93 % of control (dose: 400.0 mg/kg/injection, schedule: Q04DX002 (ip), vehicle: saline with Tween-80).
With `c1ccc(CN=C(Nc2ccc(C3=NCCN3)cc2)c2cccc(C(=NCc3ccccc3)Nc3ccc(C4=NCCN4)cc3)c2)cc1`, the T/C reads like this: under setting [8], 104 % of control; under setting [9], 104 % of control; under setting [10], 104 % of control.
For `CCOc1c(N=Nc2ccc(Br)cc2)c(C)nn1C(=S)S`, the T/C under setting [6] was 105 % of control and the T/C under setting [7] was 109 % of control.
As for `COc1cccc2c1C(=N)c1c(O)c3c(c(O)c1C2=O)CC(O)(C(C)=O)CC3OC1CC(N(Cc2ccccc2)Cc2ccccc2)C(O)C(C)O1` (configuration not stated), the T/C was 101 % of control (dose: 4.69 mg/kg/injection, schedule: Q04DX003 (ip), vehicle: distilled water + Tween-80); 102 % of control (dose: 9.38 mg/kg/injection, schedule: Q04DX003 (ip), vehicle: distilled water + Tween-80); 100 % of control (dose: 18.75 mg/kg/injection, schedule: Q04DX003 (ip), vehicle: distilled water + Tween-80); 96 % of control (dose: 37.5 mg/kg/injection, schedule: Q04DX003 (ip), vehicle: distilled water + Tween-80); 101 % of control (dose: 75.0 mg/kg/injection, schedule: Q04DX003 (ip), vehicle: distilled water + Tween-80); 108 % of control (dose: 150.0 mg/kg/injection, schedule: Q04DX003 (ip), vehicle: distilled water + Tween-80).

The values above are taken from PubChem BioAssay AID330 (DTP/NCI, 2004).
